Results published in publication PMC9329436, “Optimization of the 4-anilinoquin(az)oline scaffold as epidermal growth factor receptor (EGFR) inhibitors for chordoma utilizing a toxicology profiling assay platform” (Scientific Reports, 2022).
Like-named read-outs stand apart in the source and are kept apart here.

Key:
Type in all cases: biochemical
[1] = biological target: 320 wild-type protein kinases (Homo sapiens, UniProt Q13464); conditions: kinase ROCK1, singlicate
Text: (§1) Table S4. Profiling of two compounds at two concentrations against 320 wild-type protein kinases; singlicate measurement; Residual activities (% of control).

[2] = biological target: T1, 320 wild-type protein kinases (Homo sapiens, UniProt Q9H093); conditions: kinase SNARK, singlicate
T1 sequence (Q9H093 1-628): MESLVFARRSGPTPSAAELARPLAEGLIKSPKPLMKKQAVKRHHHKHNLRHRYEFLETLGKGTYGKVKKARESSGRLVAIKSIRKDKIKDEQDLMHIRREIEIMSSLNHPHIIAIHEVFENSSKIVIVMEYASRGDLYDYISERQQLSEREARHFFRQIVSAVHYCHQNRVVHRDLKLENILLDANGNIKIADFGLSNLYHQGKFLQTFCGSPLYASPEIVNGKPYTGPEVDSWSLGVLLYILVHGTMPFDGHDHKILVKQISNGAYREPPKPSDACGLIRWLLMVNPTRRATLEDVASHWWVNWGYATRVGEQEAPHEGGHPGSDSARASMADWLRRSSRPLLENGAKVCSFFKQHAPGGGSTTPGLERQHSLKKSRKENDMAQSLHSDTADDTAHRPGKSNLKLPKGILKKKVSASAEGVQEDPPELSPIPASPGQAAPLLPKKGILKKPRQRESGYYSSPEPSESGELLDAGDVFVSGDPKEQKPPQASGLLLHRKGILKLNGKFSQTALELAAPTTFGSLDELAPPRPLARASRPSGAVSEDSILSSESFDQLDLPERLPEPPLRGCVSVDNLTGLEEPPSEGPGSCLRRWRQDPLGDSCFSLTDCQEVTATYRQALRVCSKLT
Text: as §1

[3] = biological target: T2, 320 wild-type protein kinases (Homo sapiens, UniProt Q8IWQ3); conditions: singlicate
T2 sequence (Q8IWQ3 1-736): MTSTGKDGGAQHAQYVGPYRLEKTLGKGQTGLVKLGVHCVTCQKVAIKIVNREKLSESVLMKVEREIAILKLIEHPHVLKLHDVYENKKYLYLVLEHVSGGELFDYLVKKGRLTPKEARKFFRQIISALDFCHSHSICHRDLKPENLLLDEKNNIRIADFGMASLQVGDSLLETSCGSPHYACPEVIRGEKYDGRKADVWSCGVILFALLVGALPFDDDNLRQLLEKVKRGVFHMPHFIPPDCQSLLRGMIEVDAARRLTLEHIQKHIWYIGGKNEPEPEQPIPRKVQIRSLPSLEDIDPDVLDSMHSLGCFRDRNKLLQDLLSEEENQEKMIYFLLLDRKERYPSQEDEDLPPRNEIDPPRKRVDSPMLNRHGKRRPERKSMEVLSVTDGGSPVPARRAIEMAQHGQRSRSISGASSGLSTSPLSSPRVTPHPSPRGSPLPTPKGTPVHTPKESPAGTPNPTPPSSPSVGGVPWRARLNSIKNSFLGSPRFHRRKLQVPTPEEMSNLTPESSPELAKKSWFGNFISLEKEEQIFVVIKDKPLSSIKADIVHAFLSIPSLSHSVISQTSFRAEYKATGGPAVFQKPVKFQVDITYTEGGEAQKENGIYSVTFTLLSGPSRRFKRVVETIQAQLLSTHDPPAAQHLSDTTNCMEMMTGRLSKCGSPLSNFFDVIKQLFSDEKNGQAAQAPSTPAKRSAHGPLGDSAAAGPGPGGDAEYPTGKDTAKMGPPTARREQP
Text: as §1

[4] = biological target: 320 wild-type protein kinases (Homo sapiens, UniProt Q8N568); conditions: singlicate
Text: as §1

[5] = biological target: 320 wild-type protein kinases (Homo sapiens, UniProt Q13557); conditions: CAMK2D, singlicate
Text: as §1

[6] = biological target: 320 wild-type protein kinases (Homo sapiens, UniProt P31751); conditions: singlicate
Text: as §1

[7] = biological target: 320 wild-type protein kinases (Homo sapiens, UniProt P28482); conditions: singlicate
Text: as §1

[8] = biological target: 320 wild-type protein kinases (Homo sapiens, UniProt Q9Y463); conditions: DYRK1B, singlicate
Text: as §1

[9] = biological target: T3, 320 wild-type protein kinases (Homo sapiens, UniProt Q13043); conditions: singlicate
T3 sequence (Q13043 1-487): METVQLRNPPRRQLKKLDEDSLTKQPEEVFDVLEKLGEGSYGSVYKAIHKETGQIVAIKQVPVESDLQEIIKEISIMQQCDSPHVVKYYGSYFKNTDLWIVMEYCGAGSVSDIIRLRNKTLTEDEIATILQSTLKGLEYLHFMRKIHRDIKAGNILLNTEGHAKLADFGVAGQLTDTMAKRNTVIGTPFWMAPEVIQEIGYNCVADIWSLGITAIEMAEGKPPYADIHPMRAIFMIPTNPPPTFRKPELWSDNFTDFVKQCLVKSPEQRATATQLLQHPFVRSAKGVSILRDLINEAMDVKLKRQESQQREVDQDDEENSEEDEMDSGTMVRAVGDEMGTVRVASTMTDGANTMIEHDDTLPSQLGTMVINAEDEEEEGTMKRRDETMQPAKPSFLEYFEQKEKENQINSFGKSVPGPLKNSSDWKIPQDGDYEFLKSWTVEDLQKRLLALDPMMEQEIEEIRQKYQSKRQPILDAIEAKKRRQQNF
Text: as §1

320 wild-type protein kinases (Homo sapiens, UniProt Q8N568), sequence (Q8N568 whole entry): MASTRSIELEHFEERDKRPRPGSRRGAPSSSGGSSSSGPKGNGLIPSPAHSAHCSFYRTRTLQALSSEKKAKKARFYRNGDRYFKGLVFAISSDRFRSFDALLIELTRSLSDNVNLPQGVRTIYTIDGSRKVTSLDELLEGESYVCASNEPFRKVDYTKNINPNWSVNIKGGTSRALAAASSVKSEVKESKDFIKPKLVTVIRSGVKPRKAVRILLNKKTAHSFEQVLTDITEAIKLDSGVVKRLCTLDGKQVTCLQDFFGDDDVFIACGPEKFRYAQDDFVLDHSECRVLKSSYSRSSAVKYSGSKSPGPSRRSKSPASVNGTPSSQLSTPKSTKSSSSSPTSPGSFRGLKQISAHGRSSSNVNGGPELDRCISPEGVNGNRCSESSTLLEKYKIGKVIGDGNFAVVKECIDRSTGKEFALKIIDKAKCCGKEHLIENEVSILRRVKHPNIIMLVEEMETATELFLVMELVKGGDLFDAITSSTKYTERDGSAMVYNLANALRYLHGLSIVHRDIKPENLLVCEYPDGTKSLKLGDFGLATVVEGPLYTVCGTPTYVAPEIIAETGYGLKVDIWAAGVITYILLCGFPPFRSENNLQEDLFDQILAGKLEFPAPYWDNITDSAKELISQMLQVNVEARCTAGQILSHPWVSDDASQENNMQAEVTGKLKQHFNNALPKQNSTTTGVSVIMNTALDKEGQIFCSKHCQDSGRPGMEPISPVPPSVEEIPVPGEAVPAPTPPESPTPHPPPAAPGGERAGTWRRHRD
320 wild-type protein kinases (Homo sapiens, UniProt P28482), sequence (P28482 whole entry): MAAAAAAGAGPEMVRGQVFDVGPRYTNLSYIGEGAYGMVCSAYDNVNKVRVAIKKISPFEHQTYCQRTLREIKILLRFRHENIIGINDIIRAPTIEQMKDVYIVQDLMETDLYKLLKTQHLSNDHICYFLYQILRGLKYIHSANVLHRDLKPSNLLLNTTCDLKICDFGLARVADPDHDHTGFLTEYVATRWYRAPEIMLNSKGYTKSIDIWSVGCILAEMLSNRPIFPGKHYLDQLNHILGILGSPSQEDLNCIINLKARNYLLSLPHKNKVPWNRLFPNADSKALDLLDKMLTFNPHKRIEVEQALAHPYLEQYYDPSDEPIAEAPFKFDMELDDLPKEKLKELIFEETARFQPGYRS
320 wild-type protein kinases (Homo sapiens, UniProt P31751), sequence (P31751 whole entry): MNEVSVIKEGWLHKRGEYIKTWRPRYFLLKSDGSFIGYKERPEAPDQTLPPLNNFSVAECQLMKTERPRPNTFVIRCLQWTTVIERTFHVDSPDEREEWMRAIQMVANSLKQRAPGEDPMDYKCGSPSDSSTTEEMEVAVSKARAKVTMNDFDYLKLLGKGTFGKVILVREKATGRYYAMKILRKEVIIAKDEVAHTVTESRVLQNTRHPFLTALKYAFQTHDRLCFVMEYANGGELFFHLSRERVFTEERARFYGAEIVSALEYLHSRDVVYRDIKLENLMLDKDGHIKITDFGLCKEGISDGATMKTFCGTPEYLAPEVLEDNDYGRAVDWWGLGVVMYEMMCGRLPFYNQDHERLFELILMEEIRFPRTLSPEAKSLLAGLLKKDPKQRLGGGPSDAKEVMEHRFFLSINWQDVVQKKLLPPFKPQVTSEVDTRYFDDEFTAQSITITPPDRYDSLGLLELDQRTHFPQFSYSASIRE
320 wild-type protein kinases (Homo sapiens, UniProt Q13464), sequence (Q13464 whole entry): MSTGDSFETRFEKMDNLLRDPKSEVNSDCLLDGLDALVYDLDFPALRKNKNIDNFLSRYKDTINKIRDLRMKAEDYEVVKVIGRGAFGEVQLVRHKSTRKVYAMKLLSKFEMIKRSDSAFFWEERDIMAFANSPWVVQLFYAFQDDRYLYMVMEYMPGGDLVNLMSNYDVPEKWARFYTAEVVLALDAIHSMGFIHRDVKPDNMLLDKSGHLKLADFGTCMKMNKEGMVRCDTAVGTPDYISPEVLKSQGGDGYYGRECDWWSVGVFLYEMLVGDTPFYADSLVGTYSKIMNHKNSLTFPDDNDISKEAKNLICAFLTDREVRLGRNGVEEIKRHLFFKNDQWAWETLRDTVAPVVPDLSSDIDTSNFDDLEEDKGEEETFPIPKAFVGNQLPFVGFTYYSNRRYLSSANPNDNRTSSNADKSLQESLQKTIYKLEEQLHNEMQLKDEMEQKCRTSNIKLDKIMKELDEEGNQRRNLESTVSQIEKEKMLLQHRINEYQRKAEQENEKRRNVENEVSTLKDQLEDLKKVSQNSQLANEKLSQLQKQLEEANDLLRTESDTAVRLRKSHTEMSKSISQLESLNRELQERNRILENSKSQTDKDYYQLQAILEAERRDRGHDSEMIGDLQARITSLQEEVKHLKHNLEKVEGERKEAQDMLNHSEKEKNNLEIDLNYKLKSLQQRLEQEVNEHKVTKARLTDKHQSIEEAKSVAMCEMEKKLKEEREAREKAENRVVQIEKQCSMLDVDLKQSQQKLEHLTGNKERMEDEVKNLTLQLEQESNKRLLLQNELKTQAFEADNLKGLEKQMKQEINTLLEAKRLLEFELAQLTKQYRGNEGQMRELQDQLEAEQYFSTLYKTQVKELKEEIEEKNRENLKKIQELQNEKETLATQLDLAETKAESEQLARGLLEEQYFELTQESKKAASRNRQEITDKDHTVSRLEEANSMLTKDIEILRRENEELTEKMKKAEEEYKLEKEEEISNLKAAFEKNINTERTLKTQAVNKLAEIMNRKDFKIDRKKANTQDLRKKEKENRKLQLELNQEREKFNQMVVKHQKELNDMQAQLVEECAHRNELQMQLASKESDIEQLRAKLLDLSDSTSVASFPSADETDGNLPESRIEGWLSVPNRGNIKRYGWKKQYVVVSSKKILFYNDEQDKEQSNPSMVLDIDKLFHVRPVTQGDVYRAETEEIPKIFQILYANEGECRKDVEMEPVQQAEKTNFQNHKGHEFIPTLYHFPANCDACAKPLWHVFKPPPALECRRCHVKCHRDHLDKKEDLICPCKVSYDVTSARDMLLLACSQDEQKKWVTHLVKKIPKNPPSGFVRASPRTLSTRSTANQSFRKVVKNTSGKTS
320 wild-type protein kinases (Homo sapiens, UniProt Q9Y463), sequence (Q9Y463 whole entry): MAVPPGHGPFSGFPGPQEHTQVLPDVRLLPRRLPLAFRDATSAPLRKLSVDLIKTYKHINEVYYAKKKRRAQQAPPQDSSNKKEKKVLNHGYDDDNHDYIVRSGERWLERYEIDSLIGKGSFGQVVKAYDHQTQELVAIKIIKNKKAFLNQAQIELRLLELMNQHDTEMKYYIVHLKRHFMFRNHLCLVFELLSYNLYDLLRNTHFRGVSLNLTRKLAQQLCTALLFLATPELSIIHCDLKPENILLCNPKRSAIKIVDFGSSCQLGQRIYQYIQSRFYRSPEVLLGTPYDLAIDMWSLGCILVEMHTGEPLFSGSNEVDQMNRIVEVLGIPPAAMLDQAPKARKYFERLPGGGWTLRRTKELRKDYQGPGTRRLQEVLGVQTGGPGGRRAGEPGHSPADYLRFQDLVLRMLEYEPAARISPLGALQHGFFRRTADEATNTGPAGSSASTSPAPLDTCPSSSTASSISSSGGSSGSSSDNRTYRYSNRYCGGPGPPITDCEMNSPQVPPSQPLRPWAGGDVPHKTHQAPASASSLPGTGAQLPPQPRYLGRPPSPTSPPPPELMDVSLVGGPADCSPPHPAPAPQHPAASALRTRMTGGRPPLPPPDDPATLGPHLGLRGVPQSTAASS
320 wild-type protein kinases (Homo sapiens, UniProt Q13557), sequence (Q13557 whole entry): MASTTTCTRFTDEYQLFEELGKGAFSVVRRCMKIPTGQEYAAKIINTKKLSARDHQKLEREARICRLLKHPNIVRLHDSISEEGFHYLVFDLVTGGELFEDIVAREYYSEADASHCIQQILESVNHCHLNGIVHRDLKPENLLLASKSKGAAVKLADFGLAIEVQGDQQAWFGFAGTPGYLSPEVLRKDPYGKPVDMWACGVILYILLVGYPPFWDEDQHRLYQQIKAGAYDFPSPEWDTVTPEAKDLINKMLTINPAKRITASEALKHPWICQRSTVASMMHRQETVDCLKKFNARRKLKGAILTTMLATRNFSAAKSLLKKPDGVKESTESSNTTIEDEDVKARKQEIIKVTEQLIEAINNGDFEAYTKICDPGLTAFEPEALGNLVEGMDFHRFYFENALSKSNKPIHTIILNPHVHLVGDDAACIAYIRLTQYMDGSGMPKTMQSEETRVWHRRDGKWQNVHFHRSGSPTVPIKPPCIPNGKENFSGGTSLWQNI

Compound	Residual activity, ROCK1 ([1]; assay conc. 1.0E-06 M)	Residual activity, ROCK1 ([1]; assay conc. 1.0E-07 M)	Residual activity, SNARK ([2]; assay conc. 1.0E-06 M)	Residual activity, SNARK ([2]; assay conc. 1.0E-07 M)	Residual activity ([3]; BRSK2, 1.0E-06 M)	Residual activity ([3]; BRSK2, 1.0E-07 M)	Residual activity ([4]; DCAMKL2, 1.0E-06 M)	Residual activity ([4]; DCAMKL2, 1.0E-07 M)	Residual activity ([5]; 1.0E-06 M)	Residual activity ([5]; 1.0E-07 M)	Residual activity ([6]; AKT2 aa107-481, 1.0E-06 M)	Residual activity ([6]; AKT2 aa107-481, 1.0E-07 M)	Residual activity ([7]; ERK2, 1.0E-06 M)	Residual activity ([7]; ERK2, 1.0E-07 M)	Residual activity ([8]; 1.0E-06 M)	Residual activity ([8]; 1.0E-07 M)	Residual activity ([9]; MST1, 1.0E-06 M)	Residual activity ([9]; MST1, 1.0E-07 M)
C#Cc1cc(Nc2ncnc3cc(I)ccc23)ccc1Cl [Compound 41]	91 % of control	84 % of control	83 % of control	101 % of control	100 % of control	98 % of control	90 % of control	87 % of control	89 % of control	103 % of control	86 % of control	98 % of control	86 % of control	90 % of control	90 % of control	116 % of control	84 % of control	80 % of control
C#Cc1cc(Nc2ncnc3cc(OC)c(OC)cc23)ccc1Cl [Compound 45]	83 % of control	98 % of control	87 % of control	88 % of control	101 % of control	106 % of control	103 % of control	97 % of control	95 % of control	91 % of control	94 % of control	112 % of control	87 % of control	94 % of control	111 % of control	105 % of control	83 % of control	89 % of control
